Values joined by “and” are separate entries in the source; they are usually repeats but may differ in a detail not shown here. Equal values may be shown once. Read-outs that look alike come from different tables or passages of the source. Ends that are not written are not given here. * marks the point of attachment. Biotin = O=C1N[C@H]2[C@H](CS[C@H]2CCCCC(=O)*)N1
Tests used:
2F5 mAb = assay: Binding of alanine substituted gp41 MPER tetramers to 2F5 (antibody-coated beads and SPR); set-up: species or system human; conditions: flow cytometry on antibody-coated beads and SPR
Method: (§1) Data were analyzed using FlowJo (Tree Star, Ashland, Oreg.).
(§2) Development of gp41 MPER tetramers specific for neutralizing vs. non-neutralizing antibodies. […] Therefore, the next question asked was whether gp41 MPER tetramers could be made that preferentially react with either of these two prototype antibodies that would make it possible to discriminate between neutralizing 2F5-like gp41 MPER antibodies and non-neutralizing 13H11-like MPER antibodies. To address this issue, a series of gp41 MPER tetramers were made with alanine substitutions along the primary sequence (see Table 8) and assayed for the binding of 13H11 or 2F5 by flow cytometry on antibody-coated beads and by SPR (FIGS. 6C and 6D). […] Thus, tetramers made with the A13 or A15 mutant will bind B cells only with surface Ig similar to the non-neutralizing 13H11 antibody while tetramers made with the A14, A18, or A20 mutants will bind B cells only with surface Ig with specificities similar to the neutralizing 2F5 antibody.

13H11 mAb = assay: Binding of alanine substituted gp41 MPER tetramers to 13H11 (antibody-coated beads and SPR); set-up: species or system mouse; conditions: flow cytometry on antibody-coated beads and SPR
Method: as §1, §2

[1] = test system: mAb 7B2 (anti-gp41 immunodominant region); conditions: SPR, mAb 7B2 captured
Method: (§3) Surface Plasmon Resonance (SPR) measurements of tetramer binding to peptide epitopes. Tetramer binding assays were carried out on a BIAcore 3000 (BIAcore/GE Healthcare, Piscataway, N.J.) instrument using mAbs against each specific B cell epitope.
(§4) Each mAb (about 1000 RU) was first captured on anti-human Fc mAb (Pierce, Rockford, Ill.) immobilized on a CM5 sensor chip. Approximately 3000 RU of anti-human Fc mAb was covalently coupled to each flow cell of the sensor chip as described before (Alam et al, Journal of Immunology 178:4424-4435 (2007)). Each B cell tetramer was injected over its epitope specific mAb or a control surface immobilized with irrelevant mAb. For each tetramer binding curve, non-specific binding signals obtained from the control surface were subtracted. The binding assay was monitored at 25° C. and using PBS, pH 7.4, as the running buffer. The BIAevaluation 3.0 software (BIAcore/GE Healthcare, Piscataway, N.J.) was used for SPR binding data analyses.

7B2 cells = conditions: flow cytometry
Method: (§5) Use of antibody-coated beads and cell lines for tetramer quality control. Tetramer stocks were diluted to twice the desired final concentration in PBS containing 1% BSA. An equal volume of beads or cells at 5×10^5 up to 2×10^6 per sample were mixed with tetramer and incubated (4° C.×30 min). Beads or cells were washed with PBS+1% BSA before being fixed in 2% methanol-free formaldehyde (Polysciences, Inc, Warrington, Pa.) in PBS. Samples were stored at 4° C. prior to being analyzed by flow cytometry (BD LSR II, Becton Dickinson, Mountain View, Calif.). Data were analyzed using FlowJo (Tree Star, Ashland, Oreg.). For tetramer titration 40-80 ng tetramer per 10^6 cells/beads was serially diluted over 8-12 points. Optimal concentrations determined by this method were used for subsequent experiments. For cold competition experiments the incubation step was performed by staining with 10-fold excess unlabeled tetramer (4° C.×30 min) prior to the addition of APC-labeled tetramer. For cell dilution experiments, a mixture of mAb cell lines was made and then 1:10 serial dilutions of cells prepared. For cross competition experiments, mixtures of cells were prepared and then stained singly with anti-IgG reagents or tetramer, or the cells were doubly stained with both reagents either sequentially or concurrently.

mAb 7B2 on beads = conditions: flow cytometry
Method: (§6) Antibody-coated beads. Carboxyl-polystyrene beads (3.0-3.4 μm) (Spherotech, Inc., Lake Forest, Ill.) were resuspended in 0.01 M sodium acetate buffer (pH 5.0) and reacted (20° C.×1 hr) with 1-ethyl-3-(3-dimethylaminopropyl) carbodiimide hydrochloride (EDC) (Sigma-Aldrich, Co., St. Louis, Mo.) at a ratio of 3.1 mg beads to 1 mg EDC. Beads were washed with sodium acetate buffer, resuspended in a minimal volume before adding purified mAb in the same buffer (ratio of 16 mg beads to 1 mg mAb), incubated (20° C.×2 hrs), then washed with sodium acetate buffer. Beads were resuspended at 5% in PBS containing 1% bovine serum albumin and 0.02% sodium azide.
as §5

gp41 MPER tetramer [2] = assay: SPR, captured mAb, tetramer injected
Sequence of gp41 MPER tetramer (P22629 37-163 limits assumed): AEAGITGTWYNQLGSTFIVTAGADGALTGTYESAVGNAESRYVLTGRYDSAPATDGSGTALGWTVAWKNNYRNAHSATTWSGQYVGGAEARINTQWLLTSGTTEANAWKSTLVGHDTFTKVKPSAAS

gp41 MPER tetramer [3] = assay: flow cytometry, gp41 MPER tetramer on a mixture of 15% 13H11 hybridoma cells and 85% F39F cells (FIG. 4B); the value follows the mixing ratio
gp41 MPER tetramer [4] = assay: flow cytometry, gp41 MPER tetramer on the 13H11 / F39F cell mixture diluted a hundredfold in all with F39F cells (FIG. 4D); the value follows the mixing ratio
gp41 MPER tetramer [5] = assay: flow cytometry, gp41 MPER tetramer on the 15% 13H11 / 85% F39F cell mixture diluted tenfold with F39F cells (FIG. 4C); the value follows the mixing ratio
mAb F39F (anti-gp120 V3) = conditions: SPR, mAb F39F captured, 25° C., PBS pH 7.4
Method: as §3, §4

F39F cells = conditions: flow cytometry
Method: as §5

[6] = test system: V3 loop mAbs 7B9 and F39F on beads; conditions: flow cytometry
Method: as §6, §5

gp41 ID tetramer = assay: SPR, captured mAb, tetramer injected
Sequence of gp41 ID tetramer (P22629 37-163 limits assumed): as above

[7] = test system: B cell subsets from naive C57BL/6 mice
Method: (§7) Cell isolation, serum collection, and PBMC isolations. Heparinized or non-heparanized blood was collected sub-mandibularly 10 days after immunizations. For preparation of peripheral blood lymphocytes for B cell tetramer analysis, PBMC were isolated from blood collected in heparinized tubes (0.2 ml) using Lympholyte M (Cederlane). For Luminex and ELISA assays, sera was isolated from non-heparanized blood and stored at −20° C. until use. Spleen, bone marrow (BM), and peritoneal cavity (PerC) cells were also collected. For most immunizations, tissues were harvested after the 4th boost, except for kinetic studies, in which tissues from mice were harvested after 1, 3 or 7 days after a single immunization. For BM preparations, femora and tibiae were removed, aspirated with tissue medium using 23 gauge needles, filtered with 70 μm cell strainers (BD labware), and RBC-depleted using Tris-buffered ammonium chloride lysis. For splenocyte preparation, spleens were harvested and dissociated into single-cell suspensions either by passage through 70 μm cell strainers in tissue medium or by using frosted glass slides, and blood erythrocytes were depleted with ammonium chloride lysis. For isolation of peritoneal cells, peritoneal cavities of sacrificed mice were lavaged by injection with 10 ml of PBS, followed by gentle massage of the abdomen, and withdrawal of the peritoneal exudates. BM, splenic, and peritoneal single cell suspensions were centrifuged at 1500 rpm for 5 min and resuspended in 5, 10, and 1 ml of tissue media, respectively, for cell counts and immunofluorescence staining. Cell counts were performed in duplicate on a Coulter ZI Dual Threshold Cell Counter (Coulter).
(§8) Antibodies and flow cytometry. Immunofluorescent staining of single cell suspensions (≧2×10^6) was conducted using pre-mixed combinations of fluorochrome-labeled antibodies and APC-conjugated B cell tetramers at empirically-determined optimal concentrations. All antibodies were from BD unless otherwise stated. […] Other reagents included biotinylated antibodies against dump channel markers: Thy1 (Ox7; Abcam), F4/80 (BM8; Abcam), CD11c (clone HL3), Gr-1 (clone RB6-8C5), TER-119, and NK-1.1 (clone PK136), secondary staining SA-Texas Red conjugate; v-amine live/dead violet dye (Molecular Probes), and Fc block (anti-CD16/32; clone 2.4G2).
(§9) Staining was conducted at 4° C. in several sequential steps in FACS staining buffer (1×PBS with 2% FCS, 0.1% NaN3), washing twice between steps. First, cells were incubated with v-amine live/dead dye for 15 min. Next, cells were stained with APC-labeled tetramers for 30 min. Where applicable, this was preceded by addition of cold tetramer at 10 fold molar excess for 1 h. Finally, cells were stained with Fc block for 30 min, followed by incubation with combinations of primary antibody cocktails for 30 min, and secondary staining with SA-Texas Red for 30 min.
(§10) Data were acquired using an LSRII flow cytometer and Cell Quest software (BD Immunocytometry systems). A minimum of 250000 events were acquired per sample. FACS Analysis was performed using FlowJo software (Tree Star). For analysis, single cells were positively gated based on their forward scatter height vs. forward scatter area and side scatter height vs. side scatter area profiles, lymphocytes were then positively gated based on their forward and side scatter profile (live lymphocyte gate), residual dead cells were excluded with negative gating on v-amine live/dead dye, and all irrelevant non-B cells were excluded with negative gating on dump markers Thy1, F4/80, CD11c, Gr-1, TER-119, and NK-1.1.
To examine if gp41 2F5 MPER epitope reactivity across B cell subsets mapped similarly on the IgH^b allotype, reactivity to gp41 2F5 MPER tetramers was measured by measuring the percentage of APC-labeled gp41 2F5 MPER tetramer-reactive cells in C57BL/6 bone marrow, splenic, and peritoneal B cell subsets (Table 10).

[8] = test system: total naïve splenic BALB/c B cells; conditions: APC-labeled tetramer
Method: as §7, §8, §9, §10

62.19 V3 tetramer [9] = target: 62.19 V3 tetramer
Sequence of 62.19 V3 tetramer (P22629 37-163 limits assumed): as above

62.19 V3 tetramer [10] = assay: SPR, captured mAb, tetramer injected
B.con03 V3 tetramer = assay: SPR, captured mAb, tetramer injected
Sequence of B.con03 V3 tetramer (P22629 37-163 limits assumed): as above

QQEKNEQELLELAKWASLWN (QQEKNEQELLELAKWASLWN; also: tetramer with streptavidin) [A13, alanine substituted gp41 MPER tetramer]
binding to 2F5 mAb (2F5 mAb): eliminated binding

QQEKNEQELLELDKWASAWN (Biotin-GGGQQEKNEQELLELDKWASAWN; also: tetramer with streptavidin) [A18, alanine substituted gp41 MPER tetramer]
binding to non-neutralizing mAb 13H11 (13H11 mAb): significantly reduced or eliminated binding

Biotin-GGGKQLQARVLAVERYLKDQQLLGIWGCSGKLICTTAV (cysteine pairing not given here) [gp41 ID tetramer]
koff [1]: 1.1 s^−1 × 10^−3 | kon [1]: 1.2 M^−1s^−1 × 10^3 | binding to mAb cell line (7B2 cells): bound | binding to antibody-coated beads (mAb 7B2 on beads): bound only to mAb 7B2

Biotin-GGGQLDSIQKEVYQLGRQLVWCTARLATKLVGKACGIL (cysteine pairing not given here) [gp41 ID scrambled tetramer]
binding to mAb cell line (7B2 cells): higher background | binding to antibody-coated beads (mAb 7B2 on beads): higher background

2F5 (antibody)
koff (gp41 MPER tetramer [2]): 0.00037 s⁻¹ | kon (gp41 MPER tetramer [2]): 174000 M⁻¹ s⁻¹

13H11 (antibody)
percent of cells of the mixture stained with the tetramer (gp41 MPER tetramer [3]): 15.1% | percent of cells of the mixture stained with the tetramer over background (gp41 MPER tetramer [4]): 0.12% | percent of cells of the mixture stained with the tetramer (gp41 MPER tetramer [5]): 1.47% | koff (gp41 MPER tetramer [2]): 0.0081 s⁻¹ | kon (gp41 MPER tetramer [2]): 206000 M⁻¹ s⁻¹

Biotin-GGGTRPNNNTRKSIHIGPGRAFYTTGEIIGDIRQAH [B.con03 V3 tetramer]
koff (mAb F39F (anti-gp120 V3)): 0.65 s^−1 × 10^−3 | kon (mAb F39F (anti-gp120 V3)): 83.4 M^−1s^−1 × 10^3 | binding to mAb cell line (F39F cells): bound | binding to antibody-coated beads [6]: bound to both V3 loop mAbs 7B9 and F39F

7B2 (antibody)
koff (gp41 ID tetramer): 0.0011 s⁻¹ | kon (gp41 ID tetramer): 1200 M⁻¹ s⁻¹

Biotin-GGGNKEQDQAEESLQLWEKLNWL [gp41 MPER scrambled tetramer]
% of subset binding tetramer ± SEM ([7]; C57BL/6, Bone marrow, Immature): 0.10 ± 0.02% | % of subset binding tetramer ± SEM ([7]; C57BL/6, Bone marrow, MF): 0.09 ± 0.02% | % of subset binding tetramer ± SEM ([7]; C57BL/6, Bone marrow, Pro/pre): 0.06 ± 0.01% | % of subset binding tetramer ± SEM ([7]; C57BL/6, Bone marrow, T1): 0.12 ± 0.02% | % of subset binding tetramer ± SEM ([7]; C57BL/6, Bone marrow, T2): 0.11 ± 0.01% | % of subset binding tetramer ± SEM ([7]; C57BL/6, Peritoneum, B1a): 0.14 ± 0.03% | % of subset binding tetramer ± SEM ([7]; C57BL/6, Peritoneum, B1b): 0.13 ± 0.02% | % of subset binding tetramer ± SEM ([7]; C57BL/6, Peritoneum, B2): 0.15 ± 0.03% | % of subset binding tetramer ± SEM ([7]; C57BL/6, Spleen, MF): 0.11 ± 0.02% | % of subset binding tetramer ± SEM ([7]; C57BL/6, Spleen, MZ): 0.09 ± 0.01% | % of subset binding tetramer ± SEM ([7]; C57BL/6, Spleen, T1): 0.08 ± 0.01% | % of subset binding tetramer ± SEM ([7]; C57BL/6, Spleen, T2): 0.10 ± 0.02% | binding to total naïve splenic B cells [8]: Negligible binding

QQEKNEQELLELDKWASLWA (QQEKNEQELLELDKWASLWA; also: tetramer with streptavidin) [A20, alanine substituted gp41 MPER tetramer]
binding to non-neutralizing mAb 13H11 (13H11 mAb): significantly reduced or eliminated binding

QQEKNEQELLELDAWASLWN (QQEKNEQELLELDAWASLWN; also: tetramer with streptavidin) [A14, alanine substituted gp41 MPER tetramer]
binding to non-neutralizing mAb 13H11 (13H11 mAb): significantly reduced or eliminated binding

F39F (antibody)
% of cells in the tetramer-positive quadrant (62.19 V3 tetramer [9]): 6% | % of cells positive for both tetramer and anti-IgG (62.19 V3 tetramer [9]): 6.34% and 6.22% and 6.05% | koff (62.19 V3 tetramer [10]): 0.0006 s⁻¹ | kon (62.19 V3 tetramer [10]): 60500 M⁻¹ s⁻¹ | koff (B.con03 V3 tetramer): 0.00065 s⁻¹ | kon (B.con03 V3 tetramer): 83400 M⁻¹ s⁻¹

QQEKNEQELLELDKAASLWN (QQEKNEQELLELDKAASLWN; also: tetramer with streptavidin) [A15, alanine substituted gp41 MPER tetramer]
binding to 2F5 mAb (2F5 mAb): eliminated binding
